# Residue numbers refer to the chain shown, from its start.
# How the values were obtained:
# pure WT-PMM2 = target: T1, pure WT-PMM2 (Homo sapiens, UniProt O15305); assay: Inhibitory effect (IC50) on pure enzyme, coupled spectrophotometric activity assay; type: biochemical; settings: 2.5 mM was the maximum concentration used
# T1 construct: His6 (N); made in house; host or cells: E. coli BL21 Star DE3
# T1 sequence (O15305 1-246): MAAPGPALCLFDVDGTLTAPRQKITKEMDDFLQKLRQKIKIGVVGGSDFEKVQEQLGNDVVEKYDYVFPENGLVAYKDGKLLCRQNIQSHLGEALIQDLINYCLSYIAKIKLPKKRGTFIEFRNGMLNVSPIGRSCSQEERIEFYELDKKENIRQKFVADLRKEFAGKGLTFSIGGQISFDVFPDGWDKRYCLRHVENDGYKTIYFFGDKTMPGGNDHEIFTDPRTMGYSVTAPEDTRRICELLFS
# Experimental: Given that the description of most of the described pharmacological chaperones has a competitive inhibitory effect for the target enzyme, we decided to analyze Compound A's IC50.
# For the calculation of IC50 values, pure WT-PMM2 was used. Fifty nanograms of Nanodrop-measured pure dimeric PMM2 (molar extinction coefficient 23755 M^-1 cm^-1) were incubated with 1 µl of the compound at different concentrations, along with 0.5% BSA for 10 min at 30°C. After that time, the activity assays were performed by a spectrophotometric method based on the NADPH determination at 340 nm produced by a chain reaction of different coupled enzymes and the final production of […] by Glucose-6P-dehydrogenase enzyme (de Koning et al., 1998; Van Schaftingen y Jaeken, 1995). The corresponding DMSO controls were included in the assay. The IC50 values for the inhibitory compound were calculated using non-linear regression (GraphPad Prism 6 software) by plotting the log concentration of the compound (M) versus WT-PMM2 enzyme activity (%).
# WT-PMM2 = target: T2, WT-PMM2 (Homo sapiens, UniProt O15305); assay: High-throughput differential scanning fluorimetry (DSF) screening, thermal denaturation; type: binding; settings: 0.08 mg/mL of compound, 4% DMSO, vs DMSO control; read-out: protein Tm is increased (ΔTm)
# T2 construct: His6 (N); made in house; host or cells: E. coli BL21 Star DE3
# T2 sequence (O15305 1-246): T1 sequence (O15305 1-246)
# Experimental: 10,000 molecular compounds from the MyriaScreen (Sigma-Aldrich) diversity collection were screened by determining the stabilization induced by the binding of different ligands (potential pharmacological chaperones) to the purified recombinant protein. The identification of ligands that stabilize WT-PMM2 thermally, was done by monitoring the thermal denaturation. The screening was performed by monitoring a shift in the fluorescence intensity at 610 nm using the LightCycler A480 (Roche).
# PMM2 proteins were expressed in E.coli (BL21 Star™DE3 One Shot® Invitrogen). […]
# Protein purification was performed using the ÄKTA Prime System (GE Healthcare, Little Chalfont, UK) at 4°C. […] The pure protein concentration was estimated by measuring the absorbance at 280 nm in a Nanodrop spectrophotometer (Thermo Scientific, Waltham, MA, USA) using the theoretical molar extinction coefficient estimated from the amino acid composition of HisPMM2 (23755 M^-1 cm^-1).
# 10,000 compounds of molecular weight ranging from 220 to 547 Da from the MyriaScreen diversity collection, dissolved in DMSO (Sigma Aldrich, St. Louis, MO, USA) to a final concentration of 2 mg/mL, were screened by DSF for identification of ligands that stabilize WT-PMM2 thermally. […] The experimental unfolding curves were then smoothed, normalized, and analyzed using in-house software. […]
# p.Asp65Tyr mutant = target: T3, p.Asp65Tyr mutant (Homo sapiens, UniProt O15305, D65Y); assay: DSF thermal stability of purified homodimeric mutant; type: binding; settings: 80µM of the compound
# T3 construct: His6 (N); made in house; host or cells: E. coli BL21 Star DE3
# T3 sequence (O15305 1-246 D65Y): T1 sequence (O15305 1-246) with D65Y
# Experimental: The effect of Compound A on the stability of different PMM2 folding mutants was studied by DSF. The selected mutants were the folding mutants, p.Val44AIa, p.Asp65Tyr, p.Arg162Trp, p.Thr237Met and p.Cys241Ser and the catalytic and folding mutants, p.Arg123Gln and p.Arg141His as previously described. The effect was studied at 40 µM and 80 µM compound concentration over the thermal stability of the purified homodimeric mutants by DSF.
# In this case, the DSF was performed in a final reaction volume of 50 µl, containing 0.075 mg/ml of pure PMM2 protein in Hepes 20 mM, NaCl 200 mM, SYPRO Orange 5X, 1 µl of the hit compound and 2% DMSO in a LightCycler Multiwell Plate 96 (Roche).
compound,measurement,setting,value
"O=C(Nc1cccc(Cl)c1)N(c1ccccn1)c1ccccn1 [Compound A, 3-(3-Chloro-phenyl)-1,1-di-pyridin-2-yl-urea]",inhibitory effect on the activity of the pure WT-PMM2 protein,pure WT-PMM2,no inhibitory effect
same,ΔTm at 80 µg/mL,WT-PMM2,1.1 °C
same,Tm compared with WT-PMM2 basal Tm,p.Asp65Tyr mutant,reached the WT-PMM2 basal Tm

# Source: patent publication EP3275863A1, “COMPOUNDS FOR TREATING CONGENITAL DISORDERS OF GLYCOSYLATION” (Universidad Autónoma de Madrid, priority 2016, dated 2018)
